This assay deals with B6C3F1 mice, ip Sarcoma M5076, median survival T/C. Kind of assay: NCI In Vivo Anticancer Drug Screen. Data for tumor model Sarcoma M5076 (intraperitoneal) in B6C3F1 mice. To be noted: endpoint: median survival time, higher = longer survival. The gist of the method:
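Survival measured in treated (T) and vehicle control (C) mice with transplantable tumour; result given as T divided by C.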

[1] abbreviates: dose: 50.0 mg/kg/injection, schedule: Q04DX004 (ip), vehicle: saline with Tween-80.
The mark [2] stands for this setting: dose: 100.0 mg/kg/injection, schedule: Q04DX004 (ip), vehicle: saline with Tween-80.
[3] abbreviates: dose: 200.0 mg/kg/injection, schedule: Q04DX004 (ip), vehicle: saline with Tween-80.
[4] abbreviates: dose: 400.0 mg/kg/injection, schedule: Q04DX004 (ip), vehicle: saline with Tween-80.
Setting [5] is: dose: 25.0 mg/kg/injection, schedule: Q04DX004 (ip), vehicle: distilled water + Tween-80.
Where [6] appears, read: dose: 100.0 mg/kg/injection, schedule: Q04DX004 (ip), vehicle: distilled water + Tween-80.
The mark [7] stands for this setting: dose: 200.0 mg/kg/injection, schedule: Q04DX004 (ip), vehicle: distilled water + Tween-80.
[8] abbreviates: dose: 37.5 mg/kg/injection, schedule: Q04DX004 (ip), vehicle: saline with Tween-80.
Setting [9] is: dose: 75.0 mg/kg/injection, schedule: Q04DX004 (ip), vehicle: saline with Tween-80.
Where [10] appears, read: dose: 150.0 mg/kg/injection, schedule: Q04DX004 (ip), vehicle: saline with Tween-80.
Where [11] appears, read: dose: 300.0 mg/kg/injection, schedule: Q04DX004 (ip), vehicle: saline with Tween-80.
[12] abbreviates: dose: 600.0 mg/kg/injection, schedule: Q04DX004 (ip), vehicle: saline with Tween-80.

Where “and” joins values, the source holds several entries; their conditions need not be identical. Equal values may be shown once. Toxic doses and inconclusive results are not listed.

Regarding `CN(C)CCOCC(O)(c1ccccc1)c1ccccc1`, the T/C was 100 % of control (dose: 37.5 mg/kg/injection, schedule: Q04DX004 (ip), vehicle: saline) and 100 % of control (dose: 75.0 mg/kg/injection, schedule: Q04DX004 (ip), vehicle: saline).

`Cc1cc(O)c2c(c1O)C(=O)C13C(=C2O)C(=O)C2C(O)C1C1C(O)C3C(=O)C3=C(O)c4c(O)cc(C)c(O)c4C(=O)C321` (stereo not given): the T/C (dose: 1.56 mg/kg/injection, schedule: Q04DX004 (ip), vehicle: saline with Tween-80) was 118 % of control; the T/C (dose: 3.12 mg/kg/injection, schedule: Q04DX004 (ip), vehicle: saline with Tween-80) is 118 % of control; the T/C (dose: 6.25 mg/kg/injection, schedule: Q04DX004 (ip), vehicle: saline with Tween-80) is 118 % of control; the T/C (dose: 12.5 mg/kg/injection, schedule: Q04DX004 (ip), vehicle: saline with Tween-80) was 124 % of control.

`CC(C)CCC(=O)c1ccoc1`: the T/C (dose: 0.25 mg/kg/injection, schedule: Q03HX012 (ip), vehicle: saline with Tween-80) is 96 % of control; the T/C (dose: 0.5 mg/kg/injection, schedule: Q03HX012 (ip), vehicle: saline with Tween-80) was 96 % of control; the T/C (dose: 1.0 mg/kg/injection, schedule: Q03HX012 (ip), vehicle: saline with Tween-80) is 90 % of control; the T/C (dose: 2.0 mg/kg/injection, schedule: Q03HX012 (ip), vehicle: saline with Tween-80) was 99 % of control.

Regarding `Cc1cc2c(C(C)C)c(O)c(O)c(C=NCCO)c2c(O)c1-c1c(C)cc2c(C(C)C)c(O)c(O)c(C=NCCO)c2c1O`, the T/C by setting is: under setting [1], 116 % of control; (dose: 86.4 mg/kg/injection, schedule: Q04DX004 (ip), vehicle: saline with Tween-80) 120 % of control; under setting [2], 121 % of control; under setting [3], 123 % of control; (dose: 240.0 mg/kg/injection, schedule: Q04DX004 (ip), vehicle: saline with Tween-80) 150 % of control; under setting [4], 92 % of control and 210 % of control. In addition, the T/C (dose: 800.0 mg/kg/injection, schedule: Q04DX004 (ip), vehicle: saline with Tween-80) was 180 % of control.

For `Nc1nc([Se]c2nc(N)nc3c2ncn3C2OC(CO)C(O)C2O)c2ncn(C3OC(CO)C(O)C3O)c2n1` (stereo not given), the T/C is 123 % of control under setting [5]; 159 % of control under setting [6]; 157 % of control and 177 % of control under setting [7].

Take `CCn1c2ccccc2c2c3ncc4cccn4c3ccc21`: the T/C by setting is: under setting [8], 96 % of control; under setting [9], 96 % of control; under setting [10], 93 % of control; under setting [11], 92 % of control; under setting [12], 89 % of control.

For `N#Cc1c(-c2ccc(F)cc2)c(-c2ccc(F)cc2)nn(CCO)c1=O`, the T/C runs as follows: (dose: 12.5 mg/kg/injection, schedule: Q04DX004 (ip), vehicle: distilled water + Tween-80) 96 % of control and 106 % of control; under setting [5], 101 % of control and 102 % of control; (dose: 50.0 mg/kg/injection, schedule: Q04DX004 (ip), vehicle: distilled water + Tween-80) 106 % of control and 111 % of control; (dose: 72.0 mg/kg/injection, schedule: Q04DX004 (ip), vehicle: distilled water + Tween-80) 103 % of control; under setting [6], 120 % of control and 124 % of control; (dose: 120.0 mg/kg/injection, schedule: Q04DX004 (ip), vehicle: distilled water + Tween-80) 115 % of control. Moreover, the T/C reads like this: under setting [7], 123 % of control; (dose: 333.0 mg/kg/injection, schedule: Q04DX004 (ip), vehicle: distilled water + Tween-80) 150 % of control; (dose: 555.0 mg/kg/injection, schedule: Q04DX004 (ip), vehicle: distilled water + Tween-80) 153 % of control.

`CN(C)[C@@H]1C(=O)C(C(N)=O)=C(O)[C@@]2(O)C(=O)C3=C(O)c4c(O)ccc(Cl)c4[C@@](C)(O)[C@H]3C[C@@H]12`: the T/C was 86 % of control (dose: 25.0 mg/kg/injection, schedule: Q04DX004 (ip), vehicle: suspension in saline); 96 % of control (dose: 50.0 mg/kg/injection, schedule: Q04DX004 (ip), vehicle: suspension in saline); 91 % of control (dose: 100.0 mg/kg/injection, schedule: Q04DX004 (ip), vehicle: suspension in saline).

Consider `O=C(O)c1cccc2c1ccc1ccccc12`, for which the T/C runs as follows: (dose: 4.0 mg/kg/injection, schedule: Q04DX004 (ip), vehicle: saline with Tween-80) 109 % of control; (dose: 8.0 mg/kg/injection, schedule: Q04DX004 (ip), vehicle: saline with Tween-80) 102 % of control; (dose: 8.0 mg/kg/injection, schedule: Q04DX005 (ip), vehicle: saline) 98 % of control; (dose: 16.0 mg/kg/injection, schedule: Q04DX004 (ip), vehicle: saline with Tween-80) 107 % of control; (dose: 16.0 mg/kg/injection, schedule: Q04DX005 (ip), vehicle: saline) 93 % of control; (dose: 32.0 mg/kg/injection, schedule: Q04DX004 (ip), vehicle: saline with Tween-80) 105 % of control. The T/C by setting is: (dose: 32.0 mg/kg/injection, schedule: Q04DX005 (ip), vehicle: saline) 96 % of control; (dose: 64.0 mg/kg/injection, schedule: Q04DX004 (ip), vehicle: saline with Tween-80) 103 % of control; (dose: 64.0 mg/kg/injection, schedule: Q04DX005 (ip), vehicle: saline) 94 % of control; (dose: 128.0 mg/kg/injection, schedule: Q04DX005 (ip), vehicle: saline) 96 % of control.

As to `CN=C(N)c1ccc(N=C(N)c2ccc(C(N)=Nc3ccc(C(N)=NC)cc3)cc2)cc1`, the T/C (dose: 3.75 mg/kg/injection, schedule: Q01DX005 (ip), vehicle: saline) was 110 % of control; the T/C (dose: 7.5 mg/kg/injection, schedule: Q01DX005 (ip), vehicle: saline) was 116 % of control; the T/C (dose: 7.5 mg/kg/injection, schedule: Q04DX004 (ip), vehicle: saline) is 88 % of control; the T/C (dose: 15.0 mg/kg/injection, schedule: Q01DX005 (ip), vehicle: saline) was 124 % of control; the T/C (dose: 15.0 mg/kg/injection, schedule: Q04DX004 (ip), vehicle: saline) is 98 % of control; the T/C (dose: 18.0 mg/kg/injection, schedule: Q01DX005 (ip), vehicle: saline) is 156 % of control. Further, the T/C (dose: 30.0 mg/kg/injection, schedule: Q04DX004 (ip), vehicle: saline) is 109 % of control.

Consider `Cc1ccc(/C=C2/N=C([Se])N(C)C2=O)cc1`, for which the T/C is 124 % of control under setting [8], 98 % of control under setting [9] and 89 % of control under setting [10].

Turning to `CN1[C@H]2C=CC(=O)[C@]1(Cl)[C@H]1C(=O)N(c3ccccc3)C(=O)[C@@H]21`, the T/C was 102 % of control and 107 % of control (dose: 25.0 mg/kg/injection, schedule: Q04DX004 (ip), vehicle: saline with Tween-80); 101 % of control and 107 % of control under setting [1]; 95 % of control and 100 % of control under setting [2]; 94 % of control under setting [3]; 101 % of control under setting [4].

On to `C=C1C(O)C2OC3(CCC(/C=C/C(C)C4CC5(C)SC5C5(OC(CC(C)(O)C(=O)O)CCC5O)O4)O3)CCC2OC1C(O)CC(C)C1OC2(CCCCO2)CCC1C` (stereo not given), for which the T/C runs as follows: (dose: 2.5 micrograms/kg/injection, schedule: Q04DX004 (ip), vehicle: saline + alcohol) 101 % of control; (dose: 5.0 micrograms/kg/injection, schedule: Q04DX004 (ip), vehicle: saline + alcohol) 96 % of control; (dose: 10.0 micrograms/kg/injection, schedule: Q04DX004 (ip), vehicle: saline + alcohol) 99 % of control; (dose: 20.0 micrograms/kg/injection, schedule: Q04DX004 (ip), vehicle: saline + alcohol) 95 % of control; (dose: 40.0 micrograms/kg/injection, schedule: Q04DX004 (ip), vehicle: saline + alcohol) 95 % of control.

In the case of `OCC1OC(n2cnc3cc(Cl)c(Cl)cc32)C(O)C1O` (stereo not given), the T/C is 104 % of control under setting [10], 109 % of control under setting [11] and 107 % of control under setting [12].

The values above are taken from PubChem BioAssay AID292 (DTP/NCI, 2004).
